Measurements published in BindingDB's records for PubMed 39149111 (Cairo University).

Target: Prostaglandin G/H synthase 2 (Ovis aries) (UniProt P79208)
Test: Inhibition of ovine COX-2 using arachidonic acid as substrate preincubated for 5 mins followed by substrate addition

Prostaglandin G/H synthase 2 (Ovis aries), sequence (P79208 whole entry, looked up): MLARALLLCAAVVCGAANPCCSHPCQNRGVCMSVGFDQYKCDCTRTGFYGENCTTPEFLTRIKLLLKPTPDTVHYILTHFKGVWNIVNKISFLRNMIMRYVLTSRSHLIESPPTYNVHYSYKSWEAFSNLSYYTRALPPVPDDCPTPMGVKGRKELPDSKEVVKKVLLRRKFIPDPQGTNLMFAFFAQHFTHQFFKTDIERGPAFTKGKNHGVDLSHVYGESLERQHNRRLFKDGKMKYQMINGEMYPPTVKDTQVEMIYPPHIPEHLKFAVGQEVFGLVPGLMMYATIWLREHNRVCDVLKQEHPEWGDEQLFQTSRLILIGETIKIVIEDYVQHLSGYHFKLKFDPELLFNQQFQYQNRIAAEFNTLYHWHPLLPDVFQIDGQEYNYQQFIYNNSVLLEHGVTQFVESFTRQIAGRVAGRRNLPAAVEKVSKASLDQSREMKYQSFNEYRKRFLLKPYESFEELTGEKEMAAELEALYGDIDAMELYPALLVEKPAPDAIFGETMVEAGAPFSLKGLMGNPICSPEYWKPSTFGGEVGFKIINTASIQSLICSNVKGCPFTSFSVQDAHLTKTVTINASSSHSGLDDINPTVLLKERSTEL

- IC50: 560 nM
Compound: O=C1NNC(N=CCc2ccc([N+](=O)[O-])cc2)C1=NNc1ccc(-c2nc3ccccc3o2)cc1 (stereo unspecified)
